Assay results from PubChem BioAssay AID488825 (NMMLSC, 2010).

Tested on: S. cerevisiae CIT2-GFP strain, flow cytometry fluorescence, 3 h
Experiment: yeast TOR pathway CIT2-GFP reporter analogs – flow cytometry, cherry pick 3, dose response, SAR follow-up (AID 488825)

- EC50: 5.72 µM
SMILES: CNc1nc(N)c([N+](=O)[O-])c(Nc2cccc(Cl)c2)n1
